We go through three molecules from patent publication US6852888B2, “Carboxylic acid derivatives” (Syngenta Crop Protection, Inc., priority 1998, dated 2005).

For one series, the system named is Aphis craccivora. Put plainly: Action against Aphis craccivora. It counts as in vivo. The settings on record: 400 ppm spray on infested pea seedlings, 20° C., evaluated 3 and 6 days later, read-out: percentage reduction in population (% activity). As for the experimental part:
Action against Aphis craccivora
Pea seedlings are infested with Aphis craccivora, subsequently sprayed with a spray mixture comprising 400 ppm of the test compound and incubated at 20° C. The evaluation is carried out 3 and 6 days later. The percentage reduction in population (% activity) is determined by comparing the number of dead aphids on the treated plants with that on the untreated plants.

A further series relates to Myzus persicae. Put plainly: Systemic action against Myzus persicae. The conditions noted are these: pea seedlings with roots in spray mixture of 400 ppm, 20° C., evaluated 3 and 6 days later. It counts as in vivo. As for the experimental part:
Systemic Action against Myzus persicae
Pea seedlings are infested with Myzus persicae, and then placed with their roots in a spray mixture comprising 400 ppm of the test compound and incubated at 20° C. The evaluation is carried out 3 and 6 days later. The percentage reduction in population (% activity) is determined by comparing the number of dead aphids on the treated plants with that on the untreated plants.

In another series the test system is Tetranychus urticae. Put plainly: Action against Tetranychus urticae. The settings on record: 400 ppm spray on young bean plants, mixed population, 6 days at 25° C. It counts as in vivo. As to the method:
Action against Tetranychus urticae
Young bean plants are populated with a mixed population of Tetranychus urticae and sprayed one day later with an aqueous emulsion spray mixture comprising 400 ppm of the test compound. The plants are then incubated for 6 days at 25° C. and subsequently evaluated. The percentage reduction in population (% activity) is determined by comparing the number of dead eggs, larvae and adults on the treated plants with that on the untreated plants.

Each structure is given as a SMILES string.

As a reminder, the melting point is the temperature, or range, at which the solid turns liquid. Molecule `Cc1cc(OC(F)(F)C(F)Cl)ccc1NC(=O)CCCC=C(F)F` (stereo not shown) [Compound 1.1, 6,6-Difluorohex-5-enoic acid [4-(2-chloro-1,1,2-trifluoroethoxy)-2-methylphenyl]amide] had a melting point of 59 to 60 °C. In addition, in the series with Aphis craccivora, the inhibition at 400 ppm is greater than 80%.
As for `O=C(CCCC=C(F)F)Nc1ccc(OC(F)(F)C(F)F)cc1` [Compound 1.3], the “percentage reduction in population (% activity)” value in the series on Myzus persicae is recorded as “more than 80%”.
Regarding `O=C(CCCC=C(F)F)Nc1cccc(OC(F)(F)C(F)F)c1` [Compound 1.17], the “percentage reduction in population (% activity)” value in the series on Tetranychus urticae is listed as “more than 80%”.
